# ChEMBL document CHEMBL6092220 (J Med Chem, 2024)
# Active and inactive are the calls of the source. The calls are words filed in the database; no cut-off is given here.
# Assays:
# [1] = target: Protein cereblon/Signal transducer and activator of transcription 5A (Homo sapiens) (UniProt P42229+Q96SW2); experiment: PROTAC activity at STAT5A/CRBN in human PBMC cells assessed as reduction in STAT5A level upto 40 uM incubated for 20 hrs by Western blot analysis; format: cell-based
# [2] = Antitumor activity against human MOLM16 cells xenografted in mouse assessed as tumor growth inhibition at 10 mg/kg, iv; format: functional, MOLM-16; settings: read-out: TGI
# [3] = AUC (0 to t) in ICR mouse at 5 mg/kg, iv; format: ADME, organism-based; settings: in vivo
# [4] = Stability in Non human primate Hepatocyte assessed as half life; format: ADME, cell-based; settings: hepatocytes
# [5] = target: T1, Protein cereblon/Signal transducer and activator of transcription 3 (Mus musculus) (UniProt P42227+Q8C7D2); experiment: In-vivo PROTAC activity at STAT3/CRBN in female CB17 SCID mouse assessed as reduction STAT3 level liver at 10 mg/kg, iv measured at 48 hrs by Western blot analysis; format: functional, organism-based; set-up: scale not given: the % may be the effect or the level left
# Cytochrome P450 3A4 = Cytochrome P450 3A4 (Homo sapiens, UniProt P08684); experiment: Inhibition of CYP3A4 (unknown origin) using midazolam as substrate; format: ADME
# [6] = target: Signal transducer and activator of transcription 3 (Homo sapiens, UniProt P40763); experiment: Binding affinity to STAT3 (unknown origin) by FP assay
# [7] = target: T2, Protein cereblon/Signal transducer and activator of transcription 3 (Homo sapiens, UniProt P40763+Q96SW2); experiment: PROTAC activity at his-SUMO-tagged STAT3 (127 to 688 residues)/CRBN in human MOLM16 cells assessed as reduction in STAT3 level at 10 uM incubated for 4 hrs by multiplexed quantitative proteomics analysis relative to control; format: cell-based; set-up: scale not given: the % may be the effect or the level left
# [8] = Drug concentration in female CB17 SCID mouse spleen at 5 mg/kg, iv measured at 24 hrs by LC-MS/MS analysis; format: ADME, organism-based; settings: read-out: Ct
# [9] = target: T2, Protein cereblon/Signal transducer and activator of transcription 3; experiment: PROTAC activity at his-SUMO-tagged STAT3 (127 to 688 residues)/CRBN in human SU-DHL-1 cells assessed as reduction in STAT3 level upto 40 uM incubated for 20 hrs by Western blot analysis relative to control; format: cell-based; set-up: scale not given: the % may be the effect or the level left
# [10] = target: T2, Protein cereblon/Signal transducer and activator of transcription 3; experiment: PROTAC activity at his-SUMO-tagged STAT3 (127 to 688 residues)/CRBN in human HeLa cells assessed as induction of STAT3 degradation incubated for 24 hrs by TECAN SPARK microplate reader analysis; format: cell-based
# [11] = target: Protein cereblon/Signal transducer and activator of transcription 5B (Homo sapiens) (UniProt P51692+Q96SW2); experiment: PROTAC activity at STAT5B/CRBN in human PBMC cells assessed as reduction in STAT5B level upto 40 uM incubated for 20 hrs by Western blot analysis; format: cell-based
# [12] = AUC (0 to t) in Beagle dog at 1 mg/kg, iv; format: ADME, organism-based, Canis lupus familiaris; settings: in vivo
# [13] = target: T3, Protein cereblon/Signal transducer and activator of transcription 4 (Homo sapiens, UniProt Q96SW2+Q14765); experiment: PROTAC activity at STAT4/CRBN in human SU-DHL-1 cells assessed as reduction in STAT4 level incubated for 20 hrs by Western blot analysis; format: cell-based; settings: dose <= 40.0 µM
# [14] = target: T2, Protein cereblon/Signal transducer and activator of transcription 3; experiment: PROTAC activity at STAT3/CRBN in human MOLM16 cells assessed as reduction in STAT3 level at 340 nM incubated for 4 hrs by Western blot analysis; format: cell-based; set-up: scale not given: the % may be the effect or the level left
# [15] = Drug concentration in female CB17 SCID mouse liver at 5 mg/kg, iv measured at 72 hrs by LC-MS/MS analysis; format: ADME, organism-based; settings: read-out: Ct
# [16] = Apparent permeability across apical to basolateral side in human Caco-2 cells; format: ADME, cell-based
# [17] = target: T3, Protein cereblon/Signal transducer and activator of transcription 4; experiment: PROTAC activity at STAT4/CRBN in human Pfeiffer cells transfected with STAT3 K658R mutant assessed as reduction in STAT4 level upto 40 uM incubated for 20 hrs by Western blot analysis; format: cell-based
# [18] = target: T1, Protein cereblon/Signal transducer and activator of transcription 3 (Mus musculus); experiment: In-vivo PROTAC activity at STAT3/CRBN in female CB17 SCID mouse assessed as reduction STAT3 level liver at 10 mg/kg, iv measured at 24 hrs by Western blot analysis; format: functional, organism-based; set-up: scale not given: the % may be the effect or the level left
# Cytochrome P450 2D6 = Cytochrome P450 2D6 (Homo sapiens, UniProt P10635); experiment: Inhibition of CYP2D6 (unknown origin); format: ADME
# [19] = target: T2, Protein cereblon/Signal transducer and activator of transcription 3; experiment: PROTAC activity at his-SUMO-tagged STAT3 (127 to 688 residues)/CRBN in human HeLa cells assessed as induction of STAT3 degradation incubated for 24 hrs by TECAN SPARK microplate reader analysis relative to control; format: cell-based
# [20] = Stability in dog Hepatocyte assessed as half life; format: ADME, cell-based, Canis lupus familiaris; settings: hepatocytes
# Cytochrome P450 1A2 = Cytochrome P450 1A2 (Homo sapiens, UniProt P05177); experiment: Inhibition of CYP1A2 (unknown origin); format: ADME
# [21] = target: T2, Protein cereblon/Signal transducer and activator of transcription 3; experiment: PROTAC activity at his-SUMO-tagged STAT3 (127 to 688 residues)/CRBN in human PBMC cells assessed as reduction in STAT3 level incubated for 20 hrs by Western blot analysis; format: cell-based
# [22] = target: Signal transducer and activator of transcription 6 (Homo sapiens, UniProt P42226); experiment: Binding affinity to STAT6 (unknown origin) by FP assay
# [23] = target: T1, Protein cereblon/Signal transducer and activator of transcription 3 (Mus musculus); experiment: In-vivo PROTAC activity at STAT3/CRBN in female CB17 SCID mouse assessed as reduction STAT3 level spleen at 10 mg/kg, iv measured at 72 hrs by Western blot analysis; format: functional, organism-based; set-up: scale not given: the % may be the effect or the level left
# [24] = Clearance in Beagle dog assessed as hepatic blood flow at 1 mg/kg, iv; format: ADME, organism-based, Canis lupus familiaris; settings: in vivo
# [25] = target: T1, Protein cereblon/Signal transducer and activator of transcription 3 (Mus musculus); experiment: In-vivo PROTAC activity at STAT3/CRBN in female CB17 SCID mouse assessed as reduction STAT3 level spleen at 10 mg/kg, iv measured at 48 hrs by Western blot analysis; format: functional, organism-based; set-up: scale not given: the % may be the effect or the level left
# [26] = Stability in mouse Hepatocyte assessed as half life; format: ADME, cell-based; settings: hepatocytes
# [27] = target: Protein cereblon/Signal transducer and activator of transcription 6 (Homo sapiens) (UniProt P42226+Q96SW2); experiment: PROTAC activity at STAT6/CRBN in human SU-DHL-1 cells assessed as reduction in STAT6 level incubated for 20 hrs by Western blot analysis; format: cell-based
# hERG (KCNH2) [28] = target: T4, hERG (KCNH2) (Homo sapiens, UniProt Q12809); experiment: Inhibition of hERG at 30 uM relative to control; format: toxicity
# [29] = target: T3, Protein cereblon/Signal transducer and activator of transcription 4; experiment: PROTAC activity at STAT4/CRBN in human MOLM16 cells assessed as reduction in STAT4 level incubated for 4 hrs by Western blot analysis; format: cell-based
# [30] = target: T2, Protein cereblon/Signal transducer and activator of transcription 3; experiment: PROTAC activity at his-SUMO-tagged STAT3 (127 to 688 residues)/CRBN in human Pfeiffer cells assessed as reduction in STAT3 level upto 40 uM incubated for 4 hrs by Western blot analysis relative to control; format: cell-based; set-up: scale not given: the % may be the effect or the level left
# [31] = Cmax in Beagle dog at 1 mg/kg, iv; format: ADME, organism-based, Canis lupus familiaris; settings: in vivo
# [32] = Drug concentration in female CB17 SCID mouse tumor at 5 mg/kg, iv measured at 6 hrs by LC-MS/MS analysis; format: ADME, organism-based, Neoplasm; settings: read-out: Ct
# hERG (KCNH2) [33] = target: T4, hERG (KCNH2); experiment: Inhibition of hERG at 3 uM relative to control; format: toxicity
smiles,measurement,setting,value
COC(=O)N1CC[C@H]2CC[C@@H](C(=O)N[C@@H](CCC(N)=O)C(=O)N[C@@H](Cc3ccc(F)c(F)c3)C(=O)N3CCC(CCC#Cc4cccc5c4CN(C4CCC(=O)NC4=O)C5=O)CC3)N2C(=O)[C@@H](NC(=O)c2cc3cc(C(F)(F)P(=O)(O)O)ccc3s2)C1 (some centres not stated),Activity,[1],inactive
same,inhibition in vivo at 10 mg/kg,[2],54%
same,AUC(0-t),[3],859 µg·h/mL
same,half-life,[4],> 2 h
same,Activity,[5],> 90%
same,IC50,Cytochrome P450 3A4,> 10000 nM
same,IC50,[6],19 nM
same,Activity,[7],85%
same,concentration at 24 h,[8],868 ng/g
same,Activity,[9],> 95%
same,DC50,[10],500 nM
same,Activity,[11],inactive
same,AUC(0-t),[12],10.7 µg·h/mL
same,Activity,[13],Dose-dependent-effect
same,Activity,[14],100%
same,concentration at 72 h,[15],598 ng/g
same,Papp,[16],0.14 10^-6 cm/s
same,Activity,[17],inactive
same,Activity,[18],> 90%
same,IC50,Cytochrome P450 2D6,> 10000 nM
same,Emax,[19],84%
same,t1/2,[20],> 2 h
same,IC50,Cytochrome P450 1A2,> 10000 nM
same,DC50,[21],0.1 nM
same,Activity,[21]; dose 0.1-4000 nM,Dose-dependent-effect
same,IC50,[22],> 10000 nM
same,Activity,[23],> 90%
same,QH,[24],2.7%
same,Activity,[25],> 90%
same,t1/2,[26],> 2 h
same,Activity,[27],Active
same,inhibition at 30 µM,hERG (KCNH2) [28],1.1%
same,Activity,[29],inactive
same,Activity,[30],> 95%
same,Cmax,[31],8860 ng/mL
same,concentration at 6 h,[32],3150 ng/g
same,inhibition at 3 µM,hERG (KCNH2) [33],1.3%
